Test: Clearance of PBD drug-linker from conjugation reaction mixture by tangential flow filtration (constant volume diafiltration)
Details: Example 8; without cyclodextrin; Tris, NaCl and 50% propylene glycol; clearance stalling after four diavolumes
Protocol: The diafiltration (DF) process used an 88 cm^2 Ultracel Pellicon 3 cassette from Millipore with a 30 kD molecular weight pore size. The batch volume for the DF was 250 mL, the feed flow rate was 40 ml/min throughout the process, and the retentate valve was adjusted to maintain a trans-membrane pressure of ˜20 psi. The diafiltration buffer addition rate to maintain constant batch volume started at 9 mL/min, but was maintained at 13-14 ml/min through most of the process. Samples were removed after the completion of each diavolume. The concentration of hpb-CD was measured in each sample using an RP HPLC assay with evaporative light scattering detection.
This mixture was brought to 10 w/v % hpb-CD by addition of 25% volume of a 50 w/v % solution of hpb-CD in 50 mM Tris/5 mM EDTA, pH 8.0. […] The concentration of quenched drug-linker was determined in each sample. […] C and C0 are concentrations of the analyte measured, N is the number of diavolumes, and S is the sieving factor, defined as the analyte concentration on the permeate side of the membrane divided by the analyte concentration on the retentate side of the membrane. […]
The TFF process was performed on quenched conjugation reaction mixture using a 30 kD MW cutoff 0.1 m^2 Ultracel Pellicon 3 membrane (Millipore). […] The concentration of quenched PBD drug-linker was determined in each sample. […]

COc1ccc(C2=CN3C(=O)c4cc(OC)c(OCCCOc5cc6c(cc5OC)C(=O)N5C=C(c7ccc(NC(=O)[C@H](C)NC(=O)[C@@H](NC(=O)CCCCCN8C(=O)CC(SCC(NC(C)=O)C(=O)O)C8=O)C(C)C)cc7)C[C@H]5C=N6)cc4N=C[C@@H]3C2)cc1 (stereo partly shown) [compound 4]
benzodiazepine drug-related impurity remaining in the mixture: 1.1 µM

Source: patent publication US10391181B2, “Cyclodextrin and antibody-drug conjugate formulations” (priority 2013, dated 2019)
